Here are results for 37 molecules from ChEMBL document CHEMBL1201862, “PubChem BioAssay data set” (2004).

Where a name gives a salt, the structure may show the parent alone.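 Tested at 5 concentrations; 48 h exposure; 96-well plates; endpoints linearly interpolated, else capped at highest concentration. GI50 = concentration required for 50% inhibition of growth.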 Activity calls are given as the source filed them. Rule as the data show it: active = GI50 up to about 1.1 µM and inactive = higher. Square brackets hold non-standard residues; d marks the D form. Residues, ends and D or L forms follow the SMILES beside them. Peptide text beside a SMILES is read from it. *: point of attachment. Boc = CC(C)(C)OC(=O)* A value given as a limit tells only on which side of the number the result lay.

Test systems include BT-549; Hs-578T; MDA-N.
Test in all cases: DTP human tumour cell line panel, 48 h

The GI50 is the concentration giving 50% growth inhibition. Regarding `COc1ccc(C(=O)/C=C2\Nc3cccnc3N\C2=C/C(=O)c2ccc(OC)cc2)cc1`, the GI50 with BT-549 is 18.8 µM (inactive); with Hs-578T, 15.2 µM (inactive); in the experiment on MDA-N, 64.7 µM (inactive).
Take `COc1cc2c[n+](C)c3c4cc(OC)c(OC)cc4c(OC)cc3c2cc1OC`: the figures for the GI50 in the experiment on BT-549, in the experiment with Hs-578T and in the experiment with MDA-N were 3.92 µM (inactive), 1.44 µM (inactive) and 6.32 µM (inactive), respectively.
On to `NNC(=O)CC(=O)Nc1ccc(C(=O)O)cc1`, for which the GI50 in the experiment on BT-549, in the experiment with Hs-578T and in the experiment with MDA-N was > 100 µM (inactive) in each case.
In the case of `COC(=O)/C=C/c1cnc2c(c1)oc(=O)n2C`, the GI50 with BT-549, in the experiment with Hs-578T and in the experiment with MDA-N was > 100 µM (inactive) each time.
`O=C(CN1C(=O)c2ccccc2C1=O)OCC1CCCN2CCCCC12` (stereo not drawn): the GI50 in the experiment with BT-549, with Hs-578T and with MDA-N was > 100 µM (inactive) in each case.
As for `N=C(N)NCCC[C@H]1NC(=O)[C@@H](CCC(=O)O)NC(=O)[C@@H](CC(=O)O)NC(=O)[C@@H](CCC(=O)O)NC(=O)[C@H](Cc2c[nH]c3ccccc23)NC1=O` (cyclo(W[dE][dD][dE][dR])), the GI50 in the experiment with BT-549 and in the experiment on Hs-578T was > 7.5 µM (inactive) in each case.
On to `COc1ccc(Cc2ccc3nc(O)cc(C)c3c2)cc1S(=O)(=O)O`, for which the GI50 in the experiment on BT-549, with Hs-578T and in the experiment on MDA-N was > 100 µM (inactive) each time.
With `CC1(C)C2CCC(N)(C2)C1N` (stereo not drawn), the GI50 in the experiment with BT-549 and in the experiment on MDA-N was > 100 µM (inactive) throughout.
With `COc1ccccc1N1C(=O)/C(=C\c2cc(OC)c(OC)c(OC)c2)S(=O)(=O)C1c1ccccc1` (stereo not drawn), the GI50 with BT-549 is 30.5 µM (inactive); in the experiment on Hs-578T, 32.7 µM (inactive); in the experiment with MDA-N, 18.4 µM (inactive).
As to `Cc1cc(O)c(C(O)c2ccccn2)cc1O` (stereo not drawn), the GI50 was 45.8 µM (inactive) with Hs-578T and 18.7 µM (inactive) in the experiment on MDA-N.
In the case of `c1ccc2c(c1)ccc1nc3ccccn3c12`, the GI50 with BT-549 is > 100 µM (inactive); with Hs-578T, 15.3 µM (inactive).
As for `c1ccc(-c2ccc(/N=N/N3CCCC3)cc2)cc1`, the GI50 in the experiment with BT-549, in the experiment with Hs-578T and in the experiment on MDA-N was > 100 µM (inactive) each time.
On to `C=C1C(OC)=C(OC)C(=O)c2[nH]c3c(OC)cc([N+](=O)[O-])cc3c21`, for which the GI50 with BT-549, in the experiment with Hs-578T and in the experiment on MDA-N was > 100 µM (inactive) each time.
With `COc1cc2c(cc1NC(=O)c1ccccc1)c1c(n2S(=O)(=O)c2ccccc2)CCN(S(=O)(=O)c2ccccc2)C1`, the GI50 in the experiment on BT-549 and in the experiment with Hs-578T was > 100 µM (inactive) in each case.
With `COC(=O)C(Cc1c[nH]c2ccccc12)NC(=O)C(Cc1c[nH]c2ccccc12)NC(=O)C(Cc1c[nH]c2ccccc12)NC(=O)C(Cc1c[nH]c2ccccc12)NC(=O)OC(C)(C)C` (stereo not drawn) (Boc-WWWW-OMe; configuration not given here), the GI50 was 17.9 µM (inactive) in the experiment with BT-549 and 18.5 µM (inactive) in the experiment with MDA-N.
Take `COC(=O)CN(CC(=O)NCCNC(=O)OC(C)(C)C)C1CCCCC1N(CC(=O)OC)CC(=O)OC` (stereo not drawn): the GI50 with BT-549, in the experiment on Hs-578T and in the experiment on MDA-N was > 100 µM (inactive) in each case.
For the molecule `CC(O)c1c2c(cc3c1CC1(C3)Cc3cc4c(c(C(C)O)c3C1)CCC4)CCC2` (stereo not drawn), the GI50 in the experiment on Hs-578T was 22.5 µM (inactive).
Turning to `O=C(CC(=O)Nc1ccccc1Cl)NNC(Sc1ccccc1)c1cc(/N=N/c2ccc(Br)cc2)ccc1O` (stereo not drawn), the GI50 in the experiment with BT-549 is 1.66 µM (inactive); with Hs-578T, 3.13 µM (inactive); in the experiment on MDA-N it was 2.06 µM (inactive).
Turning to `CNN1C(=O)c2c(N)c(C#N)c(-c3ccccc3)c(-c3ccccc3)c2C1=O`, the GI50 in the experiment on BT-549 is > 100 µM (inactive); in the experiment on Hs-578T, 70.1 µM (inactive); with MDA-N, > 100 µM (inactive).
With `O=C1Nc2cccc(C(F)(F)F)c2/C1=N/Nc1ccccc1[N+](=O)[O-]`, the GI50 in the experiment on BT-549 was > 100 µM (inactive); in the experiment with Hs-578T, 27.3 µM (inactive); in the experiment with MDA-N it was 17.7 µM (inactive).
In the same order, the values of `COC(=O)c1c(O)ccc2c1c1c(n2CCc2ccccc2)C(=O)c2ccccc2C1` are 24.4 µM (inactive), 29.7 µM (inactive) and 24.4 µM (inactive).
Consider `CC1=CC(O)C(C(O)(C(F)(F)F)C(F)(F)F)C(C)(C)C1` (stereo not drawn), for which the GI50 in the experiment with BT-549, with Hs-578T and in the experiment with MDA-N was > 10 µM (inactive) in each case.
`COc1cc(OC)nc(-n2c(N)c(C#N)c3ccc([N+](=O)[O-])cc3c2=O)n1`: the GI50 in the experiment with BT-549, in the experiment on Hs-578T and in the experiment with MDA-N was > 100 µM (inactive) in each case.
`CCCCCCCCCCCCCCCCCCNc1ccn(C2OC(COP(=O)(O)OCC3OC(n4cc(C)c(=O)[nH]c4=O)CC3F)C(O)C2O)c(=O)n1` (stereo not drawn): the GI50 is 5.19 µM (inactive) in the experiment on BT-549, 11.1 µM (inactive) with Hs-578T and 8.15 µM (inactive) in the experiment with MDA-N.
The matching figures for `O=[N+]([O-])c1ccc2sc(/C=N/c3ccccn3)cc2c1`: 85.1 µM (inactive), 47.6 µM (inactive) and > 100 µM (inactive).
Turning to `NC1N=C(c2ccc(Cl)cc2)C2=C(N1)c1ccccc1CC2` (stereo not drawn), the results for the GI50 with BT-549, in the experiment on Hs-578T and in the experiment with MDA-N were > 100 µM (inactive), 8.71 µM (inactive) and 2.29 µM (inactive), respectively.
For the molecule `Clc1ccc(C2=Cc3nc2c(-c2ccccc2)c2ccc([nH]2)c(-c2ccccc2)c2nc(c(-c4ccccc4)c4ccc([nH]4)c3-c3ccccc3)C=C2)cc1`, the GI50 in the experiment with BT-549, in the experiment on Hs-578T and in the experiment on MDA-N was > 62.5 µM (inactive) each time.
In the case of `N=C(N)NS(=O)(=O)c1ccc(NC(=O)c2ccc3nc4ccccc4c(Nc4ccc(S(=O)(=O)N=C(N)N)cc4)c3c2)cc1`, the GI50 in the experiment with BT-549, with Hs-578T and in the experiment on MDA-N was > 100 µM (inactive) in each case.
On to `NCCCCN` [PUTRESCINE HYDROCHLORIDE], for which, in the experiment with BT-549, the GI50 is > 100 µM (inactive).
In the case of `CCOc1ccc(N/C(=C(/C(Cl)=C(/Cl)N2CCCCC2)[N+](=O)[O-])n2nnc3ccccc32)cc1`, the GI50 in the experiment on BT-549 is 17.7 µM (inactive); with MDA-N, 16.3 µM (inactive).
Consider `C1CCC(CC2CCC(NC3=NCCO3)CC2)CC1` (stereo not drawn), for which the GI50 in the experiment with Hs-578T was 16.3 µM (inactive); with MDA-N, 20.3 µM (inactive).
Regarding `O=C1/C(=C/c2ccco2)N=C2Sc3c([nH]cnc3=O)N12`, the GI50 in the experiment with Hs-578T and with MDA-N was > 100 µM (inactive) each time.
Turning to `COc1cc2c(cc1OC)CC(=O)c1cc(OC)c(OC)cc1/C=C\2`, the figures for the GI50 in the experiment on Hs-578T and in the experiment on MDA-N were > 12.5 µM (inactive) and 2.8 µM (inactive), respectively.
`O=[N+]([O-])/C=C/COCc1cc2c(cc1Br)OCO2`: the GI50 in the experiment with Hs-578T is 23.6 µM (inactive); with MDA-N, 18.2 µM (inactive).
Take `Cc1cc(NS(=O)(=O)c2ccc(NC(=O)c3cccc4c(NNc5ccc(S(N)(=O)=O)cc5)c5ccccc5nc34)cc2)no1`: the GI50 is 61.5 µM (inactive) in the experiment with BT-549 and 52.1 µM (inactive) with MDA-N.
As for `CC(=O)/N=C1/N(/C=C2\C(=O)Oc3ccccc3C2=O)C(=O)/C(=C/c2ccccc2Cl)N1C`, the GI50 is 4.29 µM (inactive) in the experiment with Hs-578T and > 100 µM (inactive) in the experiment with MDA-N.
With `N#CC1=C(N)OC(c2cccc([N+](=O)[O-])c2)C1(C#N)C#N` (stereo not drawn), the GI50 is 84.3 µM (inactive) in the experiment on Hs-578T and 23.9 µM (inactive) in the experiment with MDA-N.
